Measurements taken from the kinase profiling compilation of Christmann-Franck et al. (2016).

Legend:
Assay in all cases: radiometric filter-binding kinase assay, Kinase HotSpot
Conditions in all cases: compound 0.5 µM; ATP 10 µM
AURKA (human) = AURKA (human) (UniProt O14965)
AURKB (human) = AURKB (human) (UniProt Q96GD4)
CLK2 (human) = CLK2 (human) (UniProt P49760)
DAPK2 (human) = DAPK2 (human) (UniProt Q9UIK4)
EPHB1 (human) = EPHB1 (human) (UniProt P54762)
ERBB2 (human) = ERBB2 (human) (UniProt P04626)
FGFR1 (human) = FGFR1 (human) (UniProt P11362)
FGFR2 (human) = FGFR2 (human) (UniProt P21802)
FLT1 (human) = FLT1 (human) (UniProt P17948)
FYN (human) = FYN (human) (UniProt P06241)
GRK6 (human) = GRK6 (human) (UniProt P43250)
GSK3A (human) = GSK3A (human) (UniProt P49840)
INSR (human) = INSR (human) (UniProt P06213)
INSRR (human) = INSRR (human) (UniProt P14616)
JAK2 JH1 JH2 (human) = JAK2 JH1 JH2 (human) (UniProt O60674)
MAP3K8 (human) = MAP3K8 (human) (UniProt P41279)
MAPK1 (human) = MAPK1 (human) (UniProt P28482)
MAPK12 (human) = MAPK12 (human) (UniProt P53778)
MAPK13 (human) = MAPK13 (human) (UniProt O15264)
MAPK14 (human) = MAPK14 (human) (UniProt Q16539)
MAPKAPK5 (human) = MAPKAPK5 (human) (UniProt Q8IW41)
MARK1 (human) = MARK1 (human) (UniProt Q9P0L2)
MARK2 (human) = MARK2 (human) (UniProt Q7KZI7)
MUSK (human) = MUSK (human) (UniProt O15146)
PAK3 (human) = PAK3 (human) (UniProt O75914)
PDGFRB (human) = PDGFRB (human) (UniProt P09619)
PDPK1 (human) = PDPK1 (human) (UniProt O15530)
PHKG2 (human) = PHKG2 (human) (UniProt P15735)
PIM2 (human) = PIM2 (human) (UniProt Q9P1W9)
PLK1 (human) = PLK1 (human) (UniProt P53350)
PLK2 (human) = PLK2 (human) (UniProt Q9NYY3)
PRKACA (human) = PRKACA (human) (UniProt P17612)
PRKCB1 (human) = PRKCB1 (human) (UniProt P05771)
PRKCE (human) = PRKCE (human) (UniProt Q02156)
PRKD3 (human) = PRKD3 (human) (UniProt O94806)
RPS6KA1 KD1 KD2 (human) = RPS6KA1 KD1 KD2 (human) (UniProt Q15418)
RPS6KB1 (human) = RPS6KB1 (human) (UniProt P23443)
TBK1 (human) = TBK1 (human) (UniProt Q9UHD2)
TSSK2 (human) = TSSK2 (human) (UniProt Q96PF2)
TYRO3 (human) = TYRO3 (human) (UniProt Q06418)
ULK2 (human) = ULK2 (human) (UniProt Q8IYT8)
WNK2 (human) = WNK2 (human) (UniProt Q9Y3S1)

Sequence of TBK1 (human) (Q9UHD2 whole entry, looked up): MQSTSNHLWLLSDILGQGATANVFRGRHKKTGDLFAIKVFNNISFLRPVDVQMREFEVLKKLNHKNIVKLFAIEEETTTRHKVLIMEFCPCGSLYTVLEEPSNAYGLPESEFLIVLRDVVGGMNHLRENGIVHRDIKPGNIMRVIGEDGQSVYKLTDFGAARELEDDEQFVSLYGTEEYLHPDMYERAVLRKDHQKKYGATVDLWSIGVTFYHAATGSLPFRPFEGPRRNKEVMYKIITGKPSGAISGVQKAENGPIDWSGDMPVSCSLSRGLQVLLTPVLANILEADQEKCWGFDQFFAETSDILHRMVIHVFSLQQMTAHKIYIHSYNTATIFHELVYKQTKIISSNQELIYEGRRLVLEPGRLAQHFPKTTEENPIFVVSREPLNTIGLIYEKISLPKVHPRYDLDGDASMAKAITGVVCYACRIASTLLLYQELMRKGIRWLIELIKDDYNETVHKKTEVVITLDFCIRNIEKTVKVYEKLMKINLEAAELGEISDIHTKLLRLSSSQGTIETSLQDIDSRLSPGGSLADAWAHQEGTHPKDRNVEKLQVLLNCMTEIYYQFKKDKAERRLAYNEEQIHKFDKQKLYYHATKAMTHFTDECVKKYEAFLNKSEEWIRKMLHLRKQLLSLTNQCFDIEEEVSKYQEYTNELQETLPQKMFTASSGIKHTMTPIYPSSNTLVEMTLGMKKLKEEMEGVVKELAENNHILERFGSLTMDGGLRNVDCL
Sequence of ULK2 (human) (Q8IYT8 whole entry, looked up): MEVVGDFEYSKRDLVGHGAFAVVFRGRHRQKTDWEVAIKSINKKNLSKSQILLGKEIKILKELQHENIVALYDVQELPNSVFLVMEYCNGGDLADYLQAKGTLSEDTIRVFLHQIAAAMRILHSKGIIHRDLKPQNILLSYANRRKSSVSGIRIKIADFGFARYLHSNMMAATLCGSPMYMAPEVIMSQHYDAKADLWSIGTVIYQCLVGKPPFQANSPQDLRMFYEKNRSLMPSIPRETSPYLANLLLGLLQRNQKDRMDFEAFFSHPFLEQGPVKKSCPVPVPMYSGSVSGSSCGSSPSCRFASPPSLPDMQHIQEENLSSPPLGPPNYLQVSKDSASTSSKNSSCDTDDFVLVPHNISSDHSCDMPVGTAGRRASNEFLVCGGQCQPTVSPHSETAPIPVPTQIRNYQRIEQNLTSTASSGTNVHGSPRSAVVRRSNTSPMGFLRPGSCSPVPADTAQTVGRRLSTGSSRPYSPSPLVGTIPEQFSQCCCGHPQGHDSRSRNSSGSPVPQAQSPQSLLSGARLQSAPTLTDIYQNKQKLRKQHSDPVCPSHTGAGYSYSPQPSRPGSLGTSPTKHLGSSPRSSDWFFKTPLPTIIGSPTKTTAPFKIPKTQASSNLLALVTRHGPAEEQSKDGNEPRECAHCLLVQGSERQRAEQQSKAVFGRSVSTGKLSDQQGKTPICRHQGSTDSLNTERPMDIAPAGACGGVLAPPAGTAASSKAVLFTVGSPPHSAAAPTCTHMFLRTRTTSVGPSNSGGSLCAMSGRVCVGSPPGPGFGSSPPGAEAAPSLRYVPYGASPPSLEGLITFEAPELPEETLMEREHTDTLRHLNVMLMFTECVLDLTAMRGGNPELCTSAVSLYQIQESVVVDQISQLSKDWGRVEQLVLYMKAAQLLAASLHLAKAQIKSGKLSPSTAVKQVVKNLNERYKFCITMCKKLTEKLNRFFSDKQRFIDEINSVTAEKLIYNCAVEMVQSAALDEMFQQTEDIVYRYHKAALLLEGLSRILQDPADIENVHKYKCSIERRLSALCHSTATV
Sequence of MAPK12 (human) (P53778 whole entry, looked up): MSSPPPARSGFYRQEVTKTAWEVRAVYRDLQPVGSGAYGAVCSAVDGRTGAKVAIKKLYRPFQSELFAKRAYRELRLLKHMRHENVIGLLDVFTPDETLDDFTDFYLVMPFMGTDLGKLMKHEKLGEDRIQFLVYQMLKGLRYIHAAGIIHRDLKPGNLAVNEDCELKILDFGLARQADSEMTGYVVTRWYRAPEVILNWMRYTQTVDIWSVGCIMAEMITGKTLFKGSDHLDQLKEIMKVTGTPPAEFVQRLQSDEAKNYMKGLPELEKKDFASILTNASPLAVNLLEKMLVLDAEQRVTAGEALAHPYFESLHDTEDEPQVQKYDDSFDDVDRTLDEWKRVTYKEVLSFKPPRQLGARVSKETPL
Sequence of GRK6 (human) (P43250 whole entry, looked up): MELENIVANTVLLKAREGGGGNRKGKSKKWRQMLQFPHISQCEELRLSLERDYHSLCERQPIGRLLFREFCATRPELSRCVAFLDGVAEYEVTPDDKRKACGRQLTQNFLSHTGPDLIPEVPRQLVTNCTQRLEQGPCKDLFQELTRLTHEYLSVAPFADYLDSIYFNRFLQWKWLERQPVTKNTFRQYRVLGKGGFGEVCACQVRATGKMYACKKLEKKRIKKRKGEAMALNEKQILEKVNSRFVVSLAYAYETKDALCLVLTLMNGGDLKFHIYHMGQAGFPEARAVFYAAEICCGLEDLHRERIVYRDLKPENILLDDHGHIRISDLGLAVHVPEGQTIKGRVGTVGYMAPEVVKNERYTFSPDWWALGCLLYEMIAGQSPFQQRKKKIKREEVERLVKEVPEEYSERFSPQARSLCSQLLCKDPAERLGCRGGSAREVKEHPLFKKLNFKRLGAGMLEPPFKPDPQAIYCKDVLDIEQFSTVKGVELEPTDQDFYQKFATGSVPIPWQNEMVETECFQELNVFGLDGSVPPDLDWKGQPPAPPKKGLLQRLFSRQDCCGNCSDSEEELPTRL
Sequence of PDGFRB (human) (P09619 whole entry, looked up): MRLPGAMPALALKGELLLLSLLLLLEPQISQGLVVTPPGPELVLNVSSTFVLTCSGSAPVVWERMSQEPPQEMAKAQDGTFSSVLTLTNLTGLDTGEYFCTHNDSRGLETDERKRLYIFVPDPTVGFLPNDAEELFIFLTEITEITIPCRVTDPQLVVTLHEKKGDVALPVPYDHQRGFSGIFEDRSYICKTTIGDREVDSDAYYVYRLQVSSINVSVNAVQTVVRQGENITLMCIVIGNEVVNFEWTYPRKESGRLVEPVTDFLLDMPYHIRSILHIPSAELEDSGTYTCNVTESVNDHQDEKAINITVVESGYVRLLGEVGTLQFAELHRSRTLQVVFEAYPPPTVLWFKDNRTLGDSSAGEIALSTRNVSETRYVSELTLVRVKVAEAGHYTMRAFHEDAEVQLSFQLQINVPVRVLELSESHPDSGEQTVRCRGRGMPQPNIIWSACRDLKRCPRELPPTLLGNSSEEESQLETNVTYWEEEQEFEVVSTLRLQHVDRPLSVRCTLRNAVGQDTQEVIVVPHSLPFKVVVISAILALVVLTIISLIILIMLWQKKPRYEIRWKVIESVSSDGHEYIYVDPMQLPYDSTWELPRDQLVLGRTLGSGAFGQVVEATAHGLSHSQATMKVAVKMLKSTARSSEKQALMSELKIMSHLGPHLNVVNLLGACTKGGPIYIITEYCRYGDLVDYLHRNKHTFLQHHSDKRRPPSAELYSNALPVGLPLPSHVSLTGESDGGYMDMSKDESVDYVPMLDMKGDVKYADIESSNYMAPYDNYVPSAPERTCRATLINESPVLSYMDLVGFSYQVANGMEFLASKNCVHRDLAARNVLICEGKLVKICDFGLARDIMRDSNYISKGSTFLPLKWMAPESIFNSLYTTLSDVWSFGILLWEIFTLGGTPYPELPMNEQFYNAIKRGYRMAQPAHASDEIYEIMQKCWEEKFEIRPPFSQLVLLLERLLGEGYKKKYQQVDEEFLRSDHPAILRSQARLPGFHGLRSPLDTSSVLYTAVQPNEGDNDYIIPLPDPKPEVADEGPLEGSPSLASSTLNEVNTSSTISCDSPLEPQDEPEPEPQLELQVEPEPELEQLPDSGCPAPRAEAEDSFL
Sequence of AURKB (human) (Q96GD4 whole entry, looked up): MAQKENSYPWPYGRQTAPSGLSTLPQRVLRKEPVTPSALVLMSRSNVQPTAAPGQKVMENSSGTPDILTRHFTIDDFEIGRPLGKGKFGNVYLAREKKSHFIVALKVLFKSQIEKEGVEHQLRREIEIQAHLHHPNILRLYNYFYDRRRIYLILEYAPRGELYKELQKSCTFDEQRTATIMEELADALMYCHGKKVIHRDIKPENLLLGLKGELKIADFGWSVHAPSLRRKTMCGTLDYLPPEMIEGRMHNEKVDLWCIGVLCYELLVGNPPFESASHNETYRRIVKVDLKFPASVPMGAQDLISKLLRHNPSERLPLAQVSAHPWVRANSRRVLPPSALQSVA
Sequence of MARK1 (human) (Q9P0L2 whole entry, looked up): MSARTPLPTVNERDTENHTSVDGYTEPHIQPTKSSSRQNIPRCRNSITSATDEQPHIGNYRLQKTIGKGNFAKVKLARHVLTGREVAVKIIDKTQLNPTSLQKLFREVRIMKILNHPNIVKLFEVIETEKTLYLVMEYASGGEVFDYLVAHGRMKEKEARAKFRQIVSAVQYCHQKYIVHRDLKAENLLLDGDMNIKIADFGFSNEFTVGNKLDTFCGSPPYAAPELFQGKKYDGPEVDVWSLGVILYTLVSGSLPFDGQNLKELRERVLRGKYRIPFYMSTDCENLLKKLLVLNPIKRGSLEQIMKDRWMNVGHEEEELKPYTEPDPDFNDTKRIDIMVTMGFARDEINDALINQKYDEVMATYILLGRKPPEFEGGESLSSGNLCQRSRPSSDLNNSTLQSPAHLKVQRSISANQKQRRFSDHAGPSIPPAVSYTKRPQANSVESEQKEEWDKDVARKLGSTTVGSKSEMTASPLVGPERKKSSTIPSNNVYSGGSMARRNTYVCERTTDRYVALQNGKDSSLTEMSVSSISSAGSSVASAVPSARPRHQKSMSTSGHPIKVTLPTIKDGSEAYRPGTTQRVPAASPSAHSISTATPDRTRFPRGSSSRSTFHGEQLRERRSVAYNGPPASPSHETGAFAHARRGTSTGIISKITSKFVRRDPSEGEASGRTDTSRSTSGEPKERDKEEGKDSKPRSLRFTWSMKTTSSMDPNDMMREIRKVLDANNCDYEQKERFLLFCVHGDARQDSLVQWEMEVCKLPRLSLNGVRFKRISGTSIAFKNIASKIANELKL

## CC#CC(=O)Nc1cc2c(Nc3ccc(F)c(Cl)c3)ncnc2cn1
AURKA (human)
  residual activity: 96.5%
AURKB (human)
  residual activity: 101%
CLK2 (human)
  residual activity: 100%
DAPK2 (human)
  residual activity: 105%
EPHB1 (human)
  residual activity: 92%
ERBB2 (human)
  residual activity: 2.36%
FGFR1 (human)
  residual activity: 91.1%
FGFR2 (human)
  residual activity: 101%
FLT1 (human)
  residual activity: 100%
FYN (human)
  residual activity: 95.8%
GRK6 (human)
  residual activity: 104%
GSK3A (human)
  residual activity: 104%
INSR (human)
  residual activity: 99.6%
INSRR (human)
  residual activity: 101%
JAK2 JH1 JH2 (human)
  residual activity: 97.4%
MAP3K8 (human)
  residual activity: 94.2%
MAPK1 (human)
  residual activity: 101%
MAPK12 (human)
  residual activity: 99.4%
MAPK13 (human)
  residual activity: 105%
MAPK14 (human)
  residual activity: 101%
MAPKAPK5 (human)
  residual activity: 96.3%
MARK1 (human)
  residual activity: 98.2%
MARK2 (human)
  residual activity: 105%
MUSK (human)
  residual activity: 79.6%
PAK3 (human)
  residual activity: 99%
PDGFRB (human)
  residual activity: 103%
PDPK1 (human)
  residual activity: 99.6%
PHKG2 (human)
  residual activity: 99%
PIM2 (human)
  residual activity: 111%
PLK1 (human)
  residual activity: 99.3%
PLK2 (human)
  residual activity: 103%
PRKACA (human)
  residual activity: 97.7%
PRKCB1 (human)
  residual activity: 97.4%
PRKCE (human)
  residual activity: 88.3%
PRKD3 (human)
  residual activity: 103%
RPS6KA1 KD1 KD2 (human)
  residual activity: 95.1%
RPS6KB1 (human)
  residual activity: 97.1%
TBK1 (human)
  residual activity: 105%
TSSK2 (human)
  residual activity: 100%
TYRO3 (human)
  residual activity: 100%
ULK2 (human)
  residual activity: 96.7%
WNK2 (human)
  residual activity: 107%

## Nc1cccc(-c2cc3c(Oc4cccc(O)c4)ncnc3[nH]2)c1
AURKA (human)
  residual activity: 78.2%
AURKB (human)
  residual activity: 71.9%
CLK2 (human)
  residual activity: 98.8%
DAPK2 (human)
  residual activity: 106%
EPHB1 (human)
  residual activity: 40%
ERBB2 (human)
  residual activity: 76.6%
FGFR1 (human)
  residual activity: 39.3%
FGFR2 (human)
  residual activity: 46.1%
FLT1 (human)
  residual activity: 8.56%
FYN (human)
  residual activity: 7.92%
GRK6 (human)
  residual activity: 98%
GSK3A (human)
  residual activity: 41.6%
INSR (human)
  residual activity: 93.7%
INSRR (human)
  residual activity: 96.3%
JAK2 JH1 JH2 (human)
  residual activity: 85.4%
MAP3K8 (human)
  residual activity: 99.6%
MAPK1 (human)
  residual activity: 114%
MAPK12 (human)
  residual activity: 88.6%
MAPK13 (human)
  residual activity: 104%
MAPK14 (human)
  residual activity: 98.1%
MAPKAPK5 (human)
  residual activity: 125%
MARK1 (human)
  residual activity: 83%
MARK2 (human)
  residual activity: 79%
MUSK (human)
  residual activity: 62.8%
PAK3 (human)
  residual activity: 79.8%
PDGFRB (human)
  residual activity: 39.9%
PDPK1 (human)
  residual activity: 86.8%
PHKG2 (human)
  residual activity: 109%
PIM2 (human)
  residual activity: 108%
PLK1 (human)
  residual activity: 104%
PLK2 (human)
  residual activity: 106%
PRKACA (human)
  residual activity: 92.3%
PRKCB1 (human)
  residual activity: 113%
PRKCE (human)
  residual activity: 97.4%
PRKD3 (human)
  residual activity: 91%
RPS6KA1 KD1 KD2 (human)
  residual activity: 105%
RPS6KB1 (human)
  residual activity: 95.3%
TBK1 (human)
  residual activity: 92.9%
TSSK2 (human)
  residual activity: 95.6%
TYRO3 (human)
  residual activity: 52.1%
ULK2 (human)
  residual activity: 97.5%
WNK2 (human)
  residual activity: 103%
